Experimental findings from publication PMC4838876, “Multivalent display of minimal Clostridium difficile glycan epitopes mimics antigenic properties of larger glycans” (Nature Communications, 2016) are described below.

In experiment [1] the test system is mAb 10A1. In words: Isothermal titration calorimetry (ITC). In kind it is binding, mouse. The protocol:
(§1) Figure 7 IM and thermodynamic analysis of glycan–mAb interactions and conformation of 1. (a) IM analysis. The heat maps represent on- and off-rates of mAb 2C5 to 1 (upper) and 3 (lower). (b) Thermograms acquired using 7 μM of mAb 2C5 and titrating 250 μM of 1 (left) or 3 mM of 3 (right) at 25 °C. Thermodynamic parameters were inferred by nonlinear least-square fits of the data points. (c) Summary of thermodynamic parameters for 1 and 3 interacting with mAbs 2C5 and 10A1. Bars represent mean±s.e.m. of two independent measurements. See Supplementary Fig. 6 for details. (d) One-dimensional proton NMR spectrum, and 2D zTOCSY and NOE spectroscopy (NOESY) NMR spectra of 1 showing the coupled protons to the anomeric protons of the five residues with numbering according to the structure shown in e. Blue circles mark cross-peaks that appear in the NOESY spectrum, whereas not showing a corresponding peak in the zTOCSY. These peaks were marked as inter-residue NOEs and labelled by residue number and proton name. […]
(§2) Assuming that 1 had more interactions with the binding pockets, association with 1 would liberate more water molecules during complex formation than 3, thereby producing a more favourable entropy. To investigate this, thermodynamic parameters of mAb interactions with 1 and 3 were measured by ITC (Fig. 7b). […]
On the technique in general: In ITC the heat of successive injections is recorded.

Experiment [2] concerns mAb 2C5. In words: Isothermal titration calorimetry (ITC). In kind it is binding, mouse. The protocol: as §1, §2

On to `C[C@@H]1O[C@@H](O[C@@H]2[C@@H](O)[C@H](O[C@H]3[C@H](O[C@@H]4O[C@@H](C)[C@H](O)[C@@H](O)[C@H]4O)[C@@H](O)[C@@H](O[C@H]4[C@@H](OCCCCCN)O[C@H](CO)[C@@H](O)[C@@H]4O)O[C@@H]3CO)O[C@H](CO)[C@H]2O)[C@H](O)[C@H](O)[C@H]1O` [Compound 1], for which the binding stoichiometry was 2.6 in experiment [1] and 2.2 in experiment [2].
